Test results from patent US11564908B2, “Beta-lactam compounds or salts thereof for use in long-acting prevention or treatment of a glucose metabolism disorder” (GLYCOLYSIS BIOMED CO., LTD., priority 2019, dated 2023).
Marks after values point to notes of the source that are not given here.

How the values were obtained:
[1] = tested on: db/db mice; experiment: Histopathological assessment (H&E stain); format: in vivo
Text: For histopathological assessment, all mice were sacrificed by 95% CO2 asphyxiation at the end of the study period. Their brain, liver, kidney, pancreas, and epididymal fat pads were removed, fixed in 10% phosphate-buffered formalin, and embedded in paraffin. Tissues embedded in paraffin were cut into 4-μm-thick sections that were then stained with hematoxylin-eosin (i.e., H&E stain).

[2] = tested on: db/db mice; experiment: Plasma biochemical parameters (AST, ALT, BUN, Cr, HbA1c); conditions: daily 3 weeks then stopped, DMH 0.41, MER 0.205, CEFT 0.82, PEN 1.473, TIE 0.41 mg/g bw i.p., MET 0.3 mg/g bw oral, week 9
Method: Inflammatory markers such as serum aspartate aminotransferase (AST), alanine aminotransferase (ALT), blood urea nitrogen (BUN), creatinine (Cr), and hemoglobin A1c (HbA1c) were measured using a BMC-Hitachi 717 chemistry auto analyzer.

[3] = tested on: db/db mice; experiment: Oral glucose tolerance test (OGTT); format: in vivo; conditions: for OGTT glucose concentration versus G8 group (FIG. 6A): week 6 (medication stopped for 3 weeks), time points of 30 min and 60 min; for OGTT glucose concentration versus G8 group (FIG. 6B): week 9 (medication stopped for 6 weeks), time points of 30 min, 60 min and 120 min
Method: Blood was sampled from the tail vein, and FPG levels were measured and recorded as the basic blood glucose levels. […] The total area under the curve (AUC) in OGTT was plotted and calculated by the Area Under Coordinates Program (StatsToDo Server, Department of Obstetrics and Gynecology, Chinese University of Hong Kong).

[4] = tested on: db/db mice; experiment: Food and water intake of mice; format: in vivo; conditions: daily 3 weeks then stopped, DMH 0.41, MER 0.205, CEFT 0.82, PEN 1.473, TIE 0.41 mg/g bw i.p., MET 0.3 mg/g bw oral, average
Method: Four to five weeks old db/db mice (BKS.Cg-Dock7^m+/+Lepr^db/JNarl) and m/m mice (BKS.Cg-Dock7^m+/Dock7^m+) were obtained from National Laboratory Animal Center ([…], Taiwan). […] PMI Nutrition International, Brentwood, Mo.) and water ad libitum. […] The mouse body weight (bw) and the amounts of water and food intake were recorded weekly for the entire study period.

[5] = 0.41 mg/g bw/day i.p. for 3 weeks (Example 1)

Row | SMILES | Kidney histological changes (tubular degeneration and necrosis, mineralization deposition, hyaline cast) ([1]; Example 2, end of study) | BUN [2] | OGTT glucose concentration versus G8 group (FIG. 6A) [3] | OGTT glucose concentration versus G8 group (FIG. 6B) [3] | further results
1 | CN(C)C(=N)N=C(N)N [Met, metformin] | more apparent in metformin-treated mice than in ertapenem-treated mice | – | – | – | –
2 | C[C@@H](O)[C@H]1C(=O)N2C(C(=O)O)=C(S[C@@H]3CN[C@H](C(=O)Nc4cccc(C(=O)O)c4)C3)[C@H](C)[C@H]12 [DMH, ertapenem] | more apparent in metformin-treated mice than in ertapenem-treated mice | 44 ± 2^d mg/dL | significantly lower than that in the G8 group | significantly lower than that in the G8 group | Injuries in brain, liver, kidney, pancreas and epididymal fat pads [1, 5]: no significant injuries; Severity and incidence of liver glycogen storage versus DB group [1, 5]: slighter than that in the DB group; Injuries in liver, kidney, pancreas and epididymal fat pads ([1]; Example 2, end of study): No significant injuries; OGTT glucose concentration versus DB group (FIG. 1) ([3]; 0.41 mg/g bw/day i.p., week 3, time points of 90 min and 120 min): significantly lower than that in the DB group; Effect on oral glucose tolerance after treatment stopped ([3]; treatment had been stopped for 10 weeks (Example 2)): effectively increased the oral glucose tolerance
3 | C[C@@H](O)[C@H]1C(=O)N2C(C(=O)O)=C(S[C@@H]3CN[C@H](C(=O)N(C)C)C3)[C@H](C)[C@H]12 [MER, meropenem hydrate] | – | 43 ± 2^bd mg/dL | – | – | ALT [2]: 89 ± 5^bcd U/L
4 | CC1(C)S[C@@H]2[C@H](NC(=O)Cc3ccccc3)C(=O)N2[C@H]1C(=O)O [PEN, penicillin G] | – | – | significantly lower than that in the G8 group | significantly lower than that in the G8 group | Diet intake [4]: 4.0 ± 0.9^a g/mice/day
